Source: US20140113898A1, “BISARYLSULFONE AND DIALKYLARYLSULFONE COMPOUNDS AS CALCIUM CHANNEL BLOCKERS” (Zalicus Pharmaceuticals Ltd., priority 2010, published 2014)
Like-named read-outs stand apart in the source and are kept apart here.

Assays:
CaV3.2 = target: T1, CaV3.2 (Homo sapiens, UniProt O95180); experiment: High-throughput CaV3.2/Kir2.3 T-type FLIPR fluorescent assay; format: cell-based; settings: Fluo-4 FLIPR, closed or inactivated state not stated
T1 construct: expressed in transfected cells; host or cells: unnamed doxycycline-inducible cell line
Method: Cells were plated in 384-well, clear-bottom, black-walled, poly-D-lysine coated plates (Becton Dickinson, Franklin Lake, N.J.) 2 days prior to use in the FLIPR assay. 100 µL of cells (1.2×10^6 cell/mL) containing doxycyline (Sigma-Aldrich, 1.5 μg/mL; to induce channel expression) were added to each well using a Multidrop (Thermo Scientific, Waltham, Mass.) and were maintained in 5% CO2 incubator at 37° C. On the morning of the assay, cells were transferred to a 5% CO2 incubator at 29° C.
Cells were washed with a wash buffer containing (in mM): 118 NaCl, 18.4 HEPES, 11.7 D-glucose, 2 CaCl2, 0.5 MgSO4, 4.7 KCl, and 1.2 KH2PO4, with the pH adjusted to 7.2 with
NaOH. 4.4 μM of the fluorescent indicator dye Fluo-4 (Invitrogen) prepared in pluronic acid (Sigma-Aldrich) was loaded into the wells and incubated for 45 minutes at 29° C. in 5% CO2. Cells were then rinsed with either a 2 mM KCl closed-state buffer (in mM: 138.5 NaCl, 10 HEPES, 10 D-glucose, 1 CaCl2, and 2 KCl, with the pH adjusted to 7.4 with NaOH) when performing the closed-state assay or 7.6 mM KCl inactivated-state buffer (in mM: 130.9 NaCl, 10 HEPES, 10 D-glucose, 1 CaCl2, and 7.6 mM KCl, with the pH adjusted to 7.4 with NaOH) when performing the inactivated-state assay. Concentration-dependent response curves were generated from 5 mM stock solutions prepared in DMSO (Sigma-Aldrich), diluted in either the 2 mM KCl buffer or 7.6 mM KCl buffer, and incubated for 20 minutes at 29° C. in 5% CO2. Calcium entry was evoked with an addition of either 12 mM KCl stimulation buffer (in mM: 128.5 NaCl, 10 HEPES, 10 D-glucose, 1 CaCl2, and 12 KCl, with the pH adjusted to 7.4 with NaOH) or 14.5 mM KCl stimulation buffer (in mM: 126 NaCl, 10 HEPES, 10 D-glucose, 1 CaCl2, and 14.5 KCl, with the pH adjusted to 7.4 with NaOH) for the closed-state or inactivated-state assay respectively. A change in the Fluo-4 fluorescence signal was assessed using FLIPR^TETRA™ instrument (Molecular Devices, Sunnyvale, Calif.) for 3 minutes following the elevation of extracellular KCl using an illumination wavelength of 470-495 nm with emissions recorded at 515-575 nm.
Concentration-dependent response curves were obtained by comparing the fluorescence signal in the presence of compound and fitted with a logistic function (1) to obtain the concentration that inhibited 50% (IC50) of the RLU signal using OriginPro v.7.5 software (OriginLab, Northampton, Mass.).
To assess the quality of the FLIPR assays the Z-factor (2) was used to quantify the suitability of the assay conditions using the following equation: […]
Data are expressed as mean and standard deviation (SD).

CaV2.2 = target: T2, CaV2.2 (Homo sapiens, UniProt Q00975); experiment: High-throughput CaV2.2/Kir2.3 FLIPR fluorescent assay; format: cell-based; settings: Fluo-4 FLIPR, closed or inactivated state not stated, read-out: FLIPR data CaV2.2
T2 construct: expressed in transfected cells; host or cells: unnamed doxycycline-inducible cell line
How it was run: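 IC50 was derived by logistic fitting of the FLIPR Fluo-4 signal recorded over 3 min after a 130 mM KCl stimulus. Before stimulation, cells (channel expression induced with doxycycline, 29 °C on assay day) were kept in pH 7.4 buffer with 2 mM KCl for the closed-state format or 12.5 mM KCl for the inactivated-state format.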

T1 sequence (O95180 whole entry): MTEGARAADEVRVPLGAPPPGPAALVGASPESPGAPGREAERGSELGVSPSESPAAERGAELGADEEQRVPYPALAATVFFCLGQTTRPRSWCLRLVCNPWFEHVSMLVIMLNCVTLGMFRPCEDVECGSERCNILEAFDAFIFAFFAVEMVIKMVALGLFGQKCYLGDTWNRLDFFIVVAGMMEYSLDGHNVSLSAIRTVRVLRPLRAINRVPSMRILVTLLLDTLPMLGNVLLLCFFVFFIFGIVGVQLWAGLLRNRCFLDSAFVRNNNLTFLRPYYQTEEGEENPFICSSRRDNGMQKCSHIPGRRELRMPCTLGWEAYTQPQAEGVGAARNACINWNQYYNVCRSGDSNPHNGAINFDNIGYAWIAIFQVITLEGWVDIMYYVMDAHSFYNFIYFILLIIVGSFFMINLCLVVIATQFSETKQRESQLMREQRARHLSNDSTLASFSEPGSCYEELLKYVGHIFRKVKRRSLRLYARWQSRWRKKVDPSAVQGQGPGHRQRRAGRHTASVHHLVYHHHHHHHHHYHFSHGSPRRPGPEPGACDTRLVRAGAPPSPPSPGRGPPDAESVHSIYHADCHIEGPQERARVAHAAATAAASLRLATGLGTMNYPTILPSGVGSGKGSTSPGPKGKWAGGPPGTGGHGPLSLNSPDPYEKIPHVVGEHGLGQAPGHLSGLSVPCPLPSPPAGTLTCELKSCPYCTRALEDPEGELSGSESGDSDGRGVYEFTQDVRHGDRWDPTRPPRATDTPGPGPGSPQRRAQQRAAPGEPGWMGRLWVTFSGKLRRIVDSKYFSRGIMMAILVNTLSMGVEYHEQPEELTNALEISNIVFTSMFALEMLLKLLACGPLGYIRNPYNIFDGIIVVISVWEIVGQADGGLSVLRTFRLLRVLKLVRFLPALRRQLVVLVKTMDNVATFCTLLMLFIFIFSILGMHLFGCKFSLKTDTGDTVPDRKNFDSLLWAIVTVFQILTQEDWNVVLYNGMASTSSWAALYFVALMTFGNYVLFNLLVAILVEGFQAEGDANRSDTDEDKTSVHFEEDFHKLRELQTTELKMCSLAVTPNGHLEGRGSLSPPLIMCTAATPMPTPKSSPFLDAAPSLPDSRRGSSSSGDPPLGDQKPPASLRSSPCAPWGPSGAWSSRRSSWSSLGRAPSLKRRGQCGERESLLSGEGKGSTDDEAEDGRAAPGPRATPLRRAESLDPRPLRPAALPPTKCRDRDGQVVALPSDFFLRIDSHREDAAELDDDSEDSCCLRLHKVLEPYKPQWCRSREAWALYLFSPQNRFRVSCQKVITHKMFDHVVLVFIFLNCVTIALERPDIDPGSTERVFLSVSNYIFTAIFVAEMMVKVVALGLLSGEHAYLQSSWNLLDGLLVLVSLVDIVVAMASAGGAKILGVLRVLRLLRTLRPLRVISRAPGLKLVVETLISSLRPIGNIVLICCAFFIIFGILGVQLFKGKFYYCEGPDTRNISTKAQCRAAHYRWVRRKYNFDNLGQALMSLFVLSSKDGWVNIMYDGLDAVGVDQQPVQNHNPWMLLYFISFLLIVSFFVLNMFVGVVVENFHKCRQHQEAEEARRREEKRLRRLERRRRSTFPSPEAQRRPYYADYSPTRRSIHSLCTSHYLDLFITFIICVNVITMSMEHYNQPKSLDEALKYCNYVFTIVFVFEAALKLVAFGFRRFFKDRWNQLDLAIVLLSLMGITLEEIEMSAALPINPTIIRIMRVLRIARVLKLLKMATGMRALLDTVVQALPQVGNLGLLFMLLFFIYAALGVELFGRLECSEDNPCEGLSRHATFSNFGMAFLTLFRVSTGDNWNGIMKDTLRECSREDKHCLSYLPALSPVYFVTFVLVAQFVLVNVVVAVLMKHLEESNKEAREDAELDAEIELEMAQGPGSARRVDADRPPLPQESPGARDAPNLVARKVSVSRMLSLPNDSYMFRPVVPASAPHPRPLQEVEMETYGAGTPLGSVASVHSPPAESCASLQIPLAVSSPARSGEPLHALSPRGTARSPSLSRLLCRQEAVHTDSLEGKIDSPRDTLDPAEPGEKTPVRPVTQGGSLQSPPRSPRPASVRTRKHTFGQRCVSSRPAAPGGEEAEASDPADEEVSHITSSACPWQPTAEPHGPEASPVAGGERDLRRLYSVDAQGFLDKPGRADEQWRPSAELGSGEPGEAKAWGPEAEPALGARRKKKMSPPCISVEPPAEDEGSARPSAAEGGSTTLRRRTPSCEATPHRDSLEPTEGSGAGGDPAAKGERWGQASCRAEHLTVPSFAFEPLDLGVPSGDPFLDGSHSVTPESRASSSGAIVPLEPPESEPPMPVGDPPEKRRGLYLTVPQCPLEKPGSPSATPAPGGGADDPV

Compound	IC50 (CaV3.2; Table 5) [nM]	IC50 (CaV2.2; Table 5) [nM]	IC50 (CaV3.2; Table 4) [nM]	IC50 (CaV2.2; Table 4) [nM]
NC1(C(=O)NCc2ccc(S(=O)(=O)c3cccc(C(F)(F)F)c3)cc2)CCC2(CC1)OCCO2 [Compound 83, 8-amino-N-(4-((3-(trifluoromethyl)phenyl)sulfonyl)benzyl)-1,4-dioxaspiro[4.5]decane-8-carboxamide]			9220	1310
O=C(CCC(F)(F)F)NCc1ccc(S(=O)(=O)c2cccc(C(F)(F)F)c2)cc1 [Compound 53, 4,4,4-trifluoro-N-(4-((3-(trifluoromethyl)phenyl)sulfonyl)benzyl)butanamide]			4100	340
O=C(NCc1ccc(S(=O)(=O)c2cccc(C(F)(F)F)c2)cc1)[C@H]1CCCCN1 [Compound 80, (R)-N-(4-((3-(trifluoromethyl)phenyl)sulfonyl)benzyl)piperidine-2-carboxamide]			8700	770
CC(C)(C(=O)N1CCC(c2nc3ccccc3[nH]2)CC1)S(=O)(=O)c1cccc(C(F)(F)F)c1 [Compound 138, 1-(4-(1H-benzol[d]imidazol-2-yl)piperidin-1-yl)-2-methyl-2-((3-(trifluoromethyl)phenyl)sulfonyl)propan-1-one]	5100	1480		
CC(C)(CCN1Cc2nc(C(F)(F)F)ccc2C1=O)S(=O)(=O)c1cccc(C(F)(F)F)c1 [Compound 188, 6-(3-methyl-3-((3-(trifluoromethyl)phenyl)sulfonyl)butyl)-2-(trifluoromethyl)-6,7-dihydro-5H-pyrolo[3,4-b]pyridine-5-one]	5540	420		
O=C(NCc1ccc(S(=O)(=O)c2cccc(C(F)(F)F)c2)cn1)c1ccnc(C(F)(F)F)n1 [Compound 98, 2-(trifluoromethyl)-N-((5-((3-(trifluoromethyl)phenyl)sulfonyl)pyridin-2-yl)methyl)pyrimidine-4-carboxamide]			9160	1490
O=C1c2ccc(C(F)(F)F)nc2CN1Cc1ccccc1S(=O)(=O)c1cccc(C(F)(F)F)c1 [Compound 58, 2-(trifluoromethyl)-6-(2-((3-(trifluoromethyl)phenyl)sulfonyl)benzyl)-6,7-dihydro-5H-pyrrolo[3,4-b]pyridin-5-one]			1480	2680
O=C(CCC(F)(F)F)NCc1cccc(S(=O)(=O)c2cccc(C(F)(F)F)c2)c1 [Compound 54, 4,4,4-trifluoro-N-(3-((3-(trifluoromethyl)phenyl)sulfonyl)benzyl)butanamide]			6710	400
O=C1c2ccc(C(F)(F)F)nc2CN1Cc1ccc(S(=O)(=O)c2cccc(C(F)(F)F)c2)cc1 [Compound 56, 2-(trifluoromethyl)-6-(4-((3-(trifluoromethyl)phenyl)sulfonyl)benzyl)-6,7-dihydro-5H-pyrrolo[3,4-b]pyridin-5-one]			2660	310
O=C(NCc1ccc(S(=O)(=O)c2cccc(C(F)(F)F)c2)cn1)c1cnc(C(F)(F)F)nc1 [Compound 97, 2-(trifluoromethyl)-N-((5-((3-(trifluoromethyl)phenyl)sulfonyl)pyridin-2-yl)methyl)pyrimidine-5-carboxamide]			4170	1930
NC1(CC(=O)NCc2ccc(S(=O)(=O)c3cccc(C(F)(F)F)c3)cc2)CCCCC1 [Compound 86, 2-(1-aminocyclohexyl)-N-(4-((3-(trifluoromethyl)phenyl)sulfonyl)benzyl)acetamide]			5500	310
O=C(NCc1ccc(S(=O)(=O)c2cccc(C(F)(F)F)c2)cc1)[C@@H]1CCCCN1 [Compound 79, (S)-N-(4-((3-(trifluoromethyl)phenyl)sulfonyl)benzyl)piperidine-2-carboxamide]			8440	1450
COc1ccc(S(=O)(=O)N2CCOCC2)cc1C(=O)NCC(C)(C)S(=O)(=O)c1cccc(C(F)(F)F)c1 [Compound 166, 2-methoxy-N-(2-methyl-2-((3-(trifluoromethyl)phenyl)sulfonyl)propyl)-5-(morpholinosulfonyl)benzamide]	9680	1310		

The remaining lines, values ahead:

IC50 (CaV3.2; Table 5) [nM]	IC50 (CaV2.2; Table 5) [nM]	IC50 (CaV3.2; Table 4) [nM]	IC50 (CaV2.2; Table 4) [nM]	Compound
5340	1310			CC(C)(CNC(=O)c1cncc(C(F)(F)F)c1)S(=O)(=O)c1cccc(C(F)(F)F)c1 [Compound 176, N-(2-methyl-2-((3-(trifluoromethyl)phenyl)sulfonyl)propyl)-5-(trifluoromethyl)nicotinamide]
6500	1530			CC(C)(CNC(=O)c1ccc(Cl)cc1)S(=O)(=O)c1cccc(C(F)(F)F)c1 [Compound 165, 4-chloro-N-(2-methyl-2-((3-(trifluoromethyl)phenyl)sulfonyl)propyl)benzamide]
5160	1020			Cc1cc(Cl)ccc1C(=O)NCC(C)(C)S(=O)(=O)c1cccc(C(F)(F)F)c1 [Compound 168, 4-chloro-2-methyl-N-(2-methyl-2-((3-(trifluoromethyl)phenyl)sulfonyl)propyl)benzamide]
5320	3190			CC(C)(CNC(=O)c1ccc(C(F)(F)F)nc1)S(=O)(=O)c1cccc(C(F)(F)F)c1 [Compound 175, N-(2-methyl-2-((3-(trifluoromethyl)phenyl)sulfonyl)propyl)-6-(trifluoromethyl)nicotinamide]
7210	1860			COc1cc(C)ccc1C(=O)NCC(C)(C)S(=O)(=O)c1cccc(C(F)(F)F)c1 [Compound 170, 2-methoxy-4-methyl-N-(2-methyl-2-((3-(trifluoromethyl)phenyl)sulfonyl)propyl)benzamide]
3530	1390			CC(C)Oc1cccnc1C(C)(C)NC(=O)C(C)(C)S(=O)(=O)c1cccc(C(F)(F)F)c1 [Compound 147, N-(2-(3-isopropoxypyridin-2-yl)propan-2-yl)-2-methyl-2-((3-(trifluoromethyl)phenyl)sulfonyl)propanamide]
8220	1120			CC(C)(CNC(=O)c1ccnc(N2CCCC2)c1)S(=O)(=O)c1cccc(C(F)(F)F)c1 [Compound 161, N-(2-methyl-2-((3-(trifluoromethyl)phenyl)sulfonyl)propyl)-2-(pyrrolidin-1-yl)isonicotinamide]
3990	1020			COc1ccc(C(=O)NCC(C)(C)S(=O)(=O)c2cccc(C(F)(F)F)c2)cc1Cl [Compound 160, 3-chloro-4-methoxy-N-(2-methyl-2-((3-(trifluoromethyl)phenyl)sulfonyl)propyl)benzamide]
7210	440			CC(C)(C(=O)NCc1cccnc1Oc1ccc(F)cc1)S(=O)(=O)c1cccc(C(F)(F)F)c1 [Compound 146, N-((2-(4-fluorophenoxy)pyridin-3-yl)methyl)-2-methyl-2-((3-(trifluoromethyl)phenyl)sulfonyl)propanamide]
		1050	1230	O=C(NCc1ccccc1S(=O)(=O)c1cccc(C(F)(F)F)c1)c1cn2cc(C(F)(F)F)ccc2n1 [Compound 51, 6-(trifluoromethyl)-N-(2-((3-(trifluoromethyl)phenyl)sulfonyl)benzyl)imidazo[1,2-a]pyridine-2-carboxamide]
